Results on 15 compounds are retold here after patent US12077495B2 (priority 2018, dated 2024).

Test [1] deals with T1, specific GHB sites (high-affinity GHB binding site) (Rattus norvegicus, UniProt P11275).
T1 construct: using crude synaptic membranes prepared from rat cortex; from tissue; host or cells: rat cortex, crude synaptic membranes
Kind of test: biochemical.

The next test addresses T2, CAMK2A (Rattus norvegicus, UniProt P11275).
T2 construct: host or cells: HEK293T
Kind of test: biochemical. Format: binding. The settings on record: whole cell lysates of CAMK2A-transfected HEK293T cells. How it is done: Cells were transfected with rat CAMK2A (Origene construct RR201121) or rat CAMK2B (Origene construct RR200520) using PolyFect (Qiagen, West Sussex, UK) according to the manufacturer's protocol. Whole cell homogenates were prepared 48 hr post-transfection by washing the cells with ice-cold 1×PBS and harvesting by scraping. Cells were collected and centrifuged for 10 min at 1000×g. Cell pellets were resuspended in ice-cold 1×PBS and homogenized using 2×1 mm zirkonium beads in a bullet blender for 20 s at max speed (NextAdvance, NY, USA). Homogenates were cleared by centrifugation (10 min, 4° C., 14.000×g). Protein concentration was determined using the Bradford protein assay. 150-200 μg protein was incubated with 5 nM ^3H-A and test compound in 1 ml total volume for 1 hr at 0-4° C. […] Proteins were then precipitated by addition of ice-cold acetone (4× of the assay volume), vortexing and incubation at −20° C. for 1 hr. Proteins were filtrated rapidly through GF/C unifilters (Whatman) and washed. The dried filters were added scintillation liquid and radioactivity measured on a Tricarb 2100 Scintillation counter (Packard).
A) Principle of photoaffinity labelling workflow. […] After introduction of biotin through a Staudinger-Bertozzi ligation to EZ-Link™ Phosphine-PEG3-Biotin (ThermoFisher Scientific), the biotin-labelled proteins were affinity-purified and subjected to LC-MS/MS analysis. […] C)^3H-A binding to cortical membranes from CAMK2A and CAMK2B knock-out mouse brains.
Human/rat CAMK2A expressed in HEK cells was assayed in an in-house established ^3H-A filtration binding assay performed on whole cell lysates of CAMK2A-transfected HEK293T cells.

The target in test [2] is T1, specific GHB sites (high-affinity GHB binding site). Kind of test: biochemical. The settings on record: pH 6.
A further test addresses T3, GABAB receptor (Rattus norvegicus, UniProt Q9Z0U4).
T3 construct: using crude synaptic membranes prepared from rat cortex; from tissue; host or cells: rat cortex, crude synaptic membranes
Kind of test: 3H-GABA binding assay for GABAB, rat cortex membranes. How it is done:
Following incubation by rapid filtration through GF/C unifilters (PerkinElmer, Boston, MA, USA), using a 96-well Packard cell-harvester (PerkinElmer) and three fast washes with ice-cold binding buffer, microscint scintillation fluid (PerkinElmer) was added to the dried filters, and the amount of filter-bound radioactivity was quantified in a Packard TopCount microplate scintillation counter (PerkinElmer). […] The binding reactions were terminated by rapid filtration through GF/C filters (Whatman), soaked in 0.1% polyethylene imine, using a Brandell 48-well harvester and rapid washing with ice-cold binding buffer. […] Data are presented as % specific binding (of control), and IC50 or Ki values calculated by means of non-linear regression curve-fitting and the Cheng-Prusoff equation, respectively.

Test [3] relates to photothrombotic focal ischemia in C57BL/6J mice. In words: Photothrombotic model, behavioural assessment (grid-walking and cylinder tasks). Format: in vivo. The settings on record: day 7. How it is done:
(§1) All procedures were performed in accordance with the guidelines on the care and use of laboratory animals set out by the University of Otago, Animal Research Committee and the Guide for Care and Use of Laboratory Animals (NIH Publication No. 85-23, 1996). All in vivo studies were approved by the University of Otago Animal Ethics Committee and are reported according to the ARRIVE (Animal Research: Reporting In Vivo Experiments) guidelines. The photochemical cortical lesion model resembles situations of acute brain injury related clinically to stroke and traumatic brain injury (TBI). Focal ischemia was induced by photothrombosis in male C57BL/6J mice (8-10 weeks) weighing ˜23-30 g as previously described (Clarkson et al., 2010). Under anesthesia with isoflurane (2% to 2.5% in O2) mice were placed in a stereotactic apparatus, the skull exposed through a midline incision, cleared of connective tissue and dried. A cold light source (KL1500 LCD, Zeiss, Auckland, New Zealand) attached to a 40× objective providing a 2-mm diameter illumination was positioned 1.5 mm lateral from bregma. Then, 0.2 ml of Rose Bengal (Sigma-Aldrich, Auckland, New Zealand; 10 mg/ml in normal saline) was administered i.p. After 5 min, the brain was illuminated through the exposed intact skull for 15 min, while keeping body temperature at 37.0±0.3° C. degrees using a heating pad (Harvard apparatus, Holliston, MA, USA). The skin was glued and animals left in a cage placed on a heating pad during the wake-up phase. Mice were housed under a 12-hr light/dark cycle with ad libitum access to food and water. Further, the mice were monitored and weighed on a daily basis.
(§2) For in vivo studies, all compounds were dissolved in a mixture of sterile saline and H2O to obtain isotonicity (0.9%) and administered as 10 mg/ml and 10 μl of solution per gram mouse body weight. The injection of compound (i.p.) was performed 30 min, 3, 6 or 12 hrs after induction of the photothrombotic stroke. The vehicle groups received a corresponding volume of saline (0.9%) at the same time points (30 min, 3, 6 or 12 hrs).
Forelimb motor performance was determined using the cylinder and grid-walking tasks as previously described (Clarkson et al., 2010). All animals were tested both in a pre- and post-testing session, 1 week before and 3 days or 7 days after the ischemic insult, respectively. Observers who scored the behaviour were blinded to the treatment groups.

The test system is the same in test [4]. Kind of test: Photothrombotic mouse model of focal ischemia, infarct volume. The test is classed as in vivo. The settings on record: day 7; for infarct size: saline 5.55. The method, then:
as §1, §2
For quantification of the infarcted area, animals were perfused with saline and then with 4% paraformaldehyde (PFA) and the brain dissected out and submerged in 4% PFA for post-fixing overnight. Then the brains were moved to 30% sucrose solution and kept at 4° C. until processing. Brains were cut in 30 μm sections, free-floating in anti-freeze media. Sections were mounted, stained for cresyl violet and the infarct volumes determined by measuring every 6th section through the entire infarct as described in Lie et al (2017). All analyses were performed by an observer blinded to the treatment groups. Brains from the pMCAO studies were flash-frozen in CO2 (gas) and processed into six parallel series of sections (30 μm). Separate series were collected on glass slides and used for infarct size analysis or in Eppendorf tubes and used for qPCR. The glass slides were stored at −80° C. until further processing, and then Cresyl-Violet stained and quantified as described for the photothrombotic photochemical method.

In test [5] the test system is GABAB(1) receptor knock-out mice. Kind of test: Glucose metabolism study, 14C-2-deoxyglucose autoradiography. The settings on record: 200 mg/kg i.p., after 45 min. Format: in vivo.
Test [6] relates to wild-type and GABAB receptor knock-out mice. Kind of test: Temperature recording (hypothermia) in mice. Format: in vivo. The settings on record: 750 mg/kg i.p., 2 hrs. How it is done:
Mice were pre-treated with saline injections (0.9% saline) i.p. for 4 days prior to the experiment to minimize stress on the day of the experiment. Experiments were conducted in a quiet room, in which mice were left undisturbed for at least two hrs prior to the experiment. After the i.p. injections, mice were left in their home cages for two hrs, had core body temperature recorded, and were then euthanized. The core body temperature was measured rectally by a thermometer (model DM 852; ELLAB Instruments; Copenhagen, Denmark) via a lubricated thermistor probe (model PRA-22002-A, 2.2 mm diameter; ELLAB Instruments). Mice were held at the base of the tail and measured until a stable temperature measurement was obtained.
By contrast, compound A had no effect on hypothermia in either wild-type or knock-out mice.

[7] abbreviates: FIG. 1D, read-out: Ki, competition in the 3H-A binding assay.
The mark [8] stands for this setting: 50 mg/kg i.p. 3 hrs after injury.
Setting [9] is: read-out: Ki, inhibition of 3H-B binding.

Read-outs that look alike come from different tables or passages of the source.

T1 sequence (P11275 whole entry): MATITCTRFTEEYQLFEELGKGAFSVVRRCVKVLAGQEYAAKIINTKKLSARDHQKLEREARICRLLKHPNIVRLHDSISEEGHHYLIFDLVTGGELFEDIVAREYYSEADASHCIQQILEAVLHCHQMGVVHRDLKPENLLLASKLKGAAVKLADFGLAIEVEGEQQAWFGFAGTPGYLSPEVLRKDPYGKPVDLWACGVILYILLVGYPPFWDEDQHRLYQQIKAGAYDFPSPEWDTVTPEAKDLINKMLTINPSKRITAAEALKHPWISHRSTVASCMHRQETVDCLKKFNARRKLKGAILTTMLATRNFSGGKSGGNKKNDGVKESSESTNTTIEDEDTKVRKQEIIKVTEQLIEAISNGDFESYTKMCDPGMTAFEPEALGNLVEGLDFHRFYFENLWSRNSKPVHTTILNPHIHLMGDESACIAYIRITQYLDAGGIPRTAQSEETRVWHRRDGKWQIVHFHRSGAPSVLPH
T3 sequence (Q9Z0U4 17-960 limits assumed): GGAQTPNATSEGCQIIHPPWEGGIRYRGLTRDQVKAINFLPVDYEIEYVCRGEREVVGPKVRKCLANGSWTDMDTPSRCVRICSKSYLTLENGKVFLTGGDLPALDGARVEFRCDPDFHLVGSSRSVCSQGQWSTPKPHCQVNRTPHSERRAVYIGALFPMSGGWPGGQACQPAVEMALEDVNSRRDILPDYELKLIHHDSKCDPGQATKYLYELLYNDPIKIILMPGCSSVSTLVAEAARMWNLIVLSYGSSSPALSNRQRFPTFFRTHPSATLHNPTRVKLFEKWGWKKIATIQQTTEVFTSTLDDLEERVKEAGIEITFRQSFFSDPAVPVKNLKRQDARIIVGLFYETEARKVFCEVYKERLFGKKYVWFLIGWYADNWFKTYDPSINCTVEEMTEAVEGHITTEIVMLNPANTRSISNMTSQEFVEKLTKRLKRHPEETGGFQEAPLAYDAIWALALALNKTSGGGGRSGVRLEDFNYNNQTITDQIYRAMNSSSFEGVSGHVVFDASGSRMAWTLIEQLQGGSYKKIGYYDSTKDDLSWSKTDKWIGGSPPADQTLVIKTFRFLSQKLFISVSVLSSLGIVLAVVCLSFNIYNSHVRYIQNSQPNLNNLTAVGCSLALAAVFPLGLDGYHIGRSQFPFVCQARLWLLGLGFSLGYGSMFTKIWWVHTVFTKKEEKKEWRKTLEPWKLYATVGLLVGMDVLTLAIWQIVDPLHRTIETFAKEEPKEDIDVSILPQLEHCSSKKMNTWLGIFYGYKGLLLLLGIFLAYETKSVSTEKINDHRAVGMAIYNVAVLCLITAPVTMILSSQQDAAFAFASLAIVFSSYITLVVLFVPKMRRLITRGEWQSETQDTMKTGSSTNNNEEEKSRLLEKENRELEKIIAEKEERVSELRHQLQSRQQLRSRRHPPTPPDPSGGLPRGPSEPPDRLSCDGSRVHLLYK
T3 sequence (O88871 41-940 partner): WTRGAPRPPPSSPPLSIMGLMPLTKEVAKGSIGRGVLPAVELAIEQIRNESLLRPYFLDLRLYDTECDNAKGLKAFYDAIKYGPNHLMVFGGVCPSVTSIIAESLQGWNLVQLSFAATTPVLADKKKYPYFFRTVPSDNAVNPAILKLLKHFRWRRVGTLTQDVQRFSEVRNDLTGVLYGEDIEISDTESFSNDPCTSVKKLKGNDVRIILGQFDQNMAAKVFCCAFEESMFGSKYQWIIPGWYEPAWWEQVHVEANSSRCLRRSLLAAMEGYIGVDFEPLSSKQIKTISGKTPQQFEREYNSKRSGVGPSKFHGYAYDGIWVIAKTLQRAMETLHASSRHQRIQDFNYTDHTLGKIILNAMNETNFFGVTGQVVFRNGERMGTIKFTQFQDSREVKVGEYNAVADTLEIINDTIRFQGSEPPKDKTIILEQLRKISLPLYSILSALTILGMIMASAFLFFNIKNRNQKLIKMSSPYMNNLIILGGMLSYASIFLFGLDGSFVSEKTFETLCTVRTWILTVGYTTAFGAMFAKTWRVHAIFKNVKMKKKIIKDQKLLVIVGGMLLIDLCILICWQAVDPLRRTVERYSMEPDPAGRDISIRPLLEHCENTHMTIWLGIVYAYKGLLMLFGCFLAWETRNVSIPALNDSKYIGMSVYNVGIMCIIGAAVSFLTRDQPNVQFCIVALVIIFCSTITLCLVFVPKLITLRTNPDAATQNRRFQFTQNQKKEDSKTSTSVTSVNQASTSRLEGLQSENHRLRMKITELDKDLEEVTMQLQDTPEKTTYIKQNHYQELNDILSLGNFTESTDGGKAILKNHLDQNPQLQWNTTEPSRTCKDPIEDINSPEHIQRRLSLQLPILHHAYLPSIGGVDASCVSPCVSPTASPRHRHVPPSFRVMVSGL
T2 sequence (P11275 whole entry): as the sequence (P11275 whole entry) above

Turning to `O=C(O)Cc1ccccc1Nc1c(Cl)cc(O)cc1Cl` [4′-hydroxydiclofenac, reference compound], the Ki in test [1] (setting [7]) came out at 16 µM.
For `O=C(O)/C=C1\CCCc2ccccc2C1O` (stereo not drawn) [B, (E,RS)-6,7,8,9-tetrahydro-5-hydroxy-5H-benzocyclohept-6-ylidene acetic acid, reference compound], the Ki amounted to 3.71 µM on CAMK2A and 0.44 µM in test [2].
Turning to `O=C(O)Cc1cc(O)ccc1Nc1c(Cl)cccc1Cl` [C, 2-((2,6-dichlorophenyl)amino)-5-hydroxyphenylacetic acid], the “inhibition of 3H-GABA binding to GABAB receptor” value at GABAB receptor (at a concentration of 1 mM) is recorded as “limited inhibition”.
`O=C(O)/C=C1\CCCc2cc(-c3ccccc3)ccc2C1O` (stereo not drawn) [Compound 2, (E)-2-(5-hydroxy-2-phenyl-5,7,8,9-tetrahydro-6H-benzo[7]annulen-6-ylidene)acetic acid]: the “motor performance in both asymmetry tests” value in test [3] (50 mg/kg 3 hrs after injury) is listed as “significantly improved”. Besides, the “number of foot faults (grid-walking)” value in test [3] (175 mg/kg, 6 hr group) is recorded as “significantly reduced”. Moreover, in test [3] (175 mg/kg, both 3 and 6 hrs), the “time spent on affected paw (cylinder task)” value was “significantly reduced”. For the same compound, the “decrease of infarct size vs saline” value in test [4] (setting [8]) is recorded as 39%; in test [4] (175 mg/kg i.p. 3 or 6 hrs after injury), 38-46%. Moreover, the values for the infarct size in test [4] (setting [8]), in test [4] (175 mg/kg i.p. 3 hrs after injury) and in test [4] (175 mg/kg i.p. 6 hrs after injury) were 3.4 mm^3, 3.44 mm^3 and 2.98 mm^3, respectively.
As for `O=C(O)/C=C1\CCCc2cc(/C=C/c3ccccc3)ccc2C1O` (stereo not drawn) [Compound 3, (E)-2-(5-hydroxy-2-((E)-styryl)-5,7,8,9-tetrahydro-6H-benzo[7]annulen-6-ylidene)acetic acid], the Ki in test [1] (pH 7.4, read-out: Ki, 3H-A binding assay) turned out to be 0.087 µM; in test [1] (read-out: Ki, inhibition of 3H-A binding, pH 6) it was 0.05 µM; in test [2], 0.03 µM.
With `O=C(O)/C=C1\CCCc2cc(Cl)ccc2C1O` (stereo not drawn) [Compound 4, (E)-2-(2-chloro-5-hydroxy-5,7,8,9-tetrahydro-6H-benzo[7]annulen-6-ylidene)acetic acid], the Ki in test [2] (setting [9]) was found to be 0.052 µM.
For `O=C(O)/C=C1\CCCc2cc(I)ccc2C1O` (stereo not drawn) [Compound 5, (E)-2-(2-iodo-5-hydroxy-5,7,8,9-tetrahydro-6H-benzo[7]annulen-6-ylidene)acetic acid], the inhibition constant (Ki) in test [2] (setting [9]) came out at 0.053 µM.
Compound `O=C(O)/C=C1\CCCc2cc(F)ccc2C1O` (stereo not drawn) [Compound 6, (E)-2-(2-fluoro-5-hydroxy-5,7,8,9-tetrahydro-6H-benzo[7]annulen-6-ylidene)acetic acid] displayed a Ki in test [2] of 0.108 µM.
Same read-out and setting: as for `Cc1ccc2c(c1)CCC/C(=C\C(=O)O)C2O` (stereo not drawn) [Compound 7, (E)-2-(2-methyl-5-hydroxy-5,7,8,9-tetrahydro-6H-benzo[7]annulen-6-ylidene)acetic acid], the figure is 0.325 µM; as for `O=C(O)/C=C1\CCCc2c(Br)cccc2C1O` (stereo not drawn) [Compound 8, (E)-2-(1-bromo-5-hydroxy-5,7,8,9-tetrahydro-6H-benzo[7]annulen-6-ylidene)acetic acid], 0.225 µM.
Consider `O=C(O)/C=C1\CCCc2c(-c3ccccc3)cccc2C1O` (stereo not drawn) [Compound 9, (E)-2-(1-phenyl-5-hydroxy-5,7,8,9-tetrahydro-6H-benzo[7]annulen-6-ylidene)acetic acid], for which the Ki in test [2] (setting [9]) came to 0.382 µM.
Regarding `O=C(O)/C=C1\CCCc2ccc(Br)cc2C1O` (stereo not drawn) [Compound 10, (E)-2-(3-bromo-5-hydroxy-5,7,8,9-tetrahydro-6H-benzo[7]annulen-6-ylidene)acetic acid], in test [2] (setting [9]), the Ki was found to be 9.69 µM.
Consider `O=C1CCCO1` [GBL, γ-butyrolactone], for which the “cerebral metabolic rate of glucose, hippocampus” value in test [5] (saline 9.74) is 6.45 nCi/ROI/min. Further, the “cerebral metabolic rate of glucose, frontal cortex” value in test [5] (saline 10.46) came to 6.78 nCi/ROI/min. Also, the “effect on body temperature (hypothermia)” value in test [6] is on record as “strong decreased in body temperature”.
For `O=C(O)CCCO` [GHB, γ-hydroxybutyric acid], the “inhibition of 3H-GABA binding to GABAB receptor” value at GABAB receptor (at both 0.1 mM and 1 mM) was “could inhibit”.
Turning to `O=C(O)Cc1ccccc1Nc1c(Cl)cccc1Cl` [diclofenac, reference compound], in test [1] (setting [7]), the Ki is 4.7 µM.
